The values below are quoted from earlier work in patent publication US20210145778A1, “Stable Liquid Compositions of Melphalan” (Orbicular Pharmaceutical Technologies Pvt. Ltd., priority 2018, published 2021).

Molecules are shown by their SMILES.

`N[C@@H](Cc1ccc(N(CCCl)CCCl)cc1)C(=O)O` [Melphalan, L-phenylalanine mustard]: the “Stability in aqueous solutions” value is on record as “poor stability”.
